# Data reported in ChEMBL document CHEMBL1137167, “Potent inhibition of checkpoint kinase activity by a hymenialdisine-derived indoloazepine” (Bioorg Med Chem Lett, 2004).
# Experiments:
# [1] = biological target: Casein kinase I isoform delta (Homo sapiens, UniProt P48730); experiment: In vitro inhibitory concentration against human casein kinase 1 delta (CK1 delta) by using [gamma-33P]-ATP] as radioligand
# [2] = biological target: Casein kinase II subunit alpha (Homo sapiens, UniProt P68400); experiment: In vitro inhibitory concentration against human casein kinase 2 (CK2) by using [gamma-33P]-ATP] as radioligand
# [3] = biological target: T1, Serine/threonine-protein kinase Chk1 (Homo sapiens, UniProt O14757); experiment: In vitro inhibitory concentration against checkpoint kinase 1 (Chk1) by using [gamma-33P]-ATP] as radioligand
# T1 sequence (O14757 whole entry): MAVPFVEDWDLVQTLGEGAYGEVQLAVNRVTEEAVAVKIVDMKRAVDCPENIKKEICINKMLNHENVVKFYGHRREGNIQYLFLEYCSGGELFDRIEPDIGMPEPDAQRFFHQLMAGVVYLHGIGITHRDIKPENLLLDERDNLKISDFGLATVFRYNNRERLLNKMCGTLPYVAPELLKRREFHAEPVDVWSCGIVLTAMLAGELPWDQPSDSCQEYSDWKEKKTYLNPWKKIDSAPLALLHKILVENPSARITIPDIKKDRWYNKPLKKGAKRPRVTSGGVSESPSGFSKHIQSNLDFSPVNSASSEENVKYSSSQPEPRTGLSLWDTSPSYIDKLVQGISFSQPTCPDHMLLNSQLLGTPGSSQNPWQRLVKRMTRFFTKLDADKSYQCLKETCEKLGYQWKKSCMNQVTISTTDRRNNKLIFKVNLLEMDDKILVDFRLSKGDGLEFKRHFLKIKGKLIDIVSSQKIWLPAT
# [4] = biological target: Serine/threonine-protein kinase Chk2 (Homo sapiens, UniProt O96017); experiment: In vitro inhibitory concentration against checkpoint kinase 2 (Chk2) by using [gamma-33P]-ATP] as radioligand
# [5] = biological target: Protein kinase C beta type (Homo sapiens, UniProt P05771); experiment: In vitro inhibitory concentration against human protein kinase C beta-2 (PKCbetaII) by using [gamma-33P]-ATP] as radioligand
# [6] = biological target: Protein kinase C alpha type (Homo sapiens, UniProt P17252); experiment: In vitro inhibitory concentration against human protein kinase C alpha (PKCa) by using [gamma-33P]-ATP] as radioligand
# Chain of Serine/threonine-protein kinase Chk2 (O96017 whole entry): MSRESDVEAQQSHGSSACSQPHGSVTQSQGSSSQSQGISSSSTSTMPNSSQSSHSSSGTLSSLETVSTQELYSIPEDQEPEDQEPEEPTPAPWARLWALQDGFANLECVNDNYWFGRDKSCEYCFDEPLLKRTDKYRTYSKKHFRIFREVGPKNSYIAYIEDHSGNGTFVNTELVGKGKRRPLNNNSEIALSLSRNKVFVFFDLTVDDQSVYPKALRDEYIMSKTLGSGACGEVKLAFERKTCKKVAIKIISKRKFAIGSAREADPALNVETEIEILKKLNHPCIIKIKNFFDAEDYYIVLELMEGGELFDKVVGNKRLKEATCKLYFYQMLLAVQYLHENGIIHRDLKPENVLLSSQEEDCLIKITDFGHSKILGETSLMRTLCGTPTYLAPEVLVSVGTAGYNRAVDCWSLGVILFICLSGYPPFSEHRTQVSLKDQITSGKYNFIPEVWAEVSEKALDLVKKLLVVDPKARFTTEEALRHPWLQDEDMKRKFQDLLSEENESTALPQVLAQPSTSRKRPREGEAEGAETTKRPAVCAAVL
# Chain of Casein kinase I isoform delta (P48730 whole entry, canonical isoform): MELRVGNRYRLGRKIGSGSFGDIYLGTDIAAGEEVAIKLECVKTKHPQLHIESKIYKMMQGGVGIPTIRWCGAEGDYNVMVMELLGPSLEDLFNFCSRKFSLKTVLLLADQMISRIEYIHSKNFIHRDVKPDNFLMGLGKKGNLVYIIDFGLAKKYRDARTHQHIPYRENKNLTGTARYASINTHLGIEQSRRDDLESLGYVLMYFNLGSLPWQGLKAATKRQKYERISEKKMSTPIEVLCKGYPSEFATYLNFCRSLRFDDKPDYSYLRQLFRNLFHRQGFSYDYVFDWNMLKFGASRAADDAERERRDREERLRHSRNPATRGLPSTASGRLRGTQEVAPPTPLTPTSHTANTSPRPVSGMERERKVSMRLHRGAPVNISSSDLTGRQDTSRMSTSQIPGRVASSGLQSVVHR
# Chain of Casein kinase II subunit alpha (P68400 whole entry): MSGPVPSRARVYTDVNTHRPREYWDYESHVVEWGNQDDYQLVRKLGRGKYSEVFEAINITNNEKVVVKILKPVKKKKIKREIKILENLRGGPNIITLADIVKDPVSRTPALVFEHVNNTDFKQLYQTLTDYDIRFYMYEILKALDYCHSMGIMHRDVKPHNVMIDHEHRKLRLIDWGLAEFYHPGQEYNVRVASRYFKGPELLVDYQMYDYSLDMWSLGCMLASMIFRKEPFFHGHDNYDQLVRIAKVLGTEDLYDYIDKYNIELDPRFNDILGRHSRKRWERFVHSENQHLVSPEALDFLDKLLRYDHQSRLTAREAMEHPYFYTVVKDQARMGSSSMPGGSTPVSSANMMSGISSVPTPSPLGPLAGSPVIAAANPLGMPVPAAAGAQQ
# Chain of Protein kinase C beta type (P05771 whole entry): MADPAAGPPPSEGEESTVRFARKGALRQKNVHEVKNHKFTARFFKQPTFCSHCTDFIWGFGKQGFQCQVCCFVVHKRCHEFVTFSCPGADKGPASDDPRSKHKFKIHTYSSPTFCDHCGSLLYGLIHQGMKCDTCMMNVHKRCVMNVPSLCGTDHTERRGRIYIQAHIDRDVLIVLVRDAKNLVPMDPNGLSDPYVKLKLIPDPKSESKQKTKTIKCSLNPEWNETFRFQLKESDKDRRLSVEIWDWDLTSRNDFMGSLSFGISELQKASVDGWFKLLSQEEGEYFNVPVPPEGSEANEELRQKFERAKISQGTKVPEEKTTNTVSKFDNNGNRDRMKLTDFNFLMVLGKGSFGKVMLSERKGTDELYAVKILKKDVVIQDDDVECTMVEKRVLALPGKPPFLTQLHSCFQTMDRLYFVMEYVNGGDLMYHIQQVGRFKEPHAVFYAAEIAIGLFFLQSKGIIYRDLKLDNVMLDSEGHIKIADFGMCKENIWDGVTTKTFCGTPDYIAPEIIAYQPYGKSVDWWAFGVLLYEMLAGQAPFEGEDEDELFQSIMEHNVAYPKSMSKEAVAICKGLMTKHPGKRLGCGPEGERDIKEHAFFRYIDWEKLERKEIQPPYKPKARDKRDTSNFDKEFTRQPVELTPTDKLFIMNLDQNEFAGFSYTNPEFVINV
IC50 [1],IC50 [2],IC50 [3],IC50 [4],IC50 [5],IC50 [6],Structure (SMILES)
35 nM,7000 nM,1950 nM,42 nM,,,NC1=NC(=O)/C(=C2\CCNC(=O)c3[nH]c(Br)cc32)N1 [HYMENIALDISINE]
,,725 nM,183 nM,,,NC1=N/C(=C2/CCNC(=O)c3[nH]ccc32)C(=O)N1 [DEBROMOHYMENIALDISINE]
1350 nM,> 10000 nM,237 nM,8 nM,3380 nM,2540 nM,Nc1nc(C2=C3C(=Nc4ccccc43)C(=O)NCC2)c(O)[nH]1
